Assay results reported in patent publication US20260356856A1, “KRAS G12S AND G12C INHIBITORS” (MIRATI THERAPEUTICS, INC., priority 2023, published 2026).

What was measured:
KRas G12C = target: T1, KRas G12C (Homo sapiens, UniProt P01116, G12C); test: KRas binding assay, TR-FRET displacement of Cy5 labelled tracer; conditions: 60-minute incubation at room temperature, 1% DMSO, pH 7.5
T1 construct: Biotinylated KRas (corresponding to amino acids 1-169, produced at Accelegan Inc.); biotin (biotinylated); purchased Accelegan Inc
T1 sequence (P01116 1-169 isoform P01116-2 G12C): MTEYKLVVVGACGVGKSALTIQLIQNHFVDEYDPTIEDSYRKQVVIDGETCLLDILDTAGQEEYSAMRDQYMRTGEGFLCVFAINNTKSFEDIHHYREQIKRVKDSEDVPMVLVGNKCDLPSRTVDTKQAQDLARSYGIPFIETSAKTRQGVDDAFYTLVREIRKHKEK
Protocol: (§1) This Example illustrates that exemplary compounds of the present invention bind to KRas and are capable of displacing a labeled tracer ligand occupying the KRas binding site. KRas^WT, KRas^G12A, KRas^G12C, KRas^G12D, KRas^G12R, KRas^G12S, KRas^G12V, KRas^G13D, or KRas^Q61H was used in the assay.
(§2) The ability of a compound to bind to KRas was measured using a TR-FRET displacement assay. Biotinylated KRas (corresponding to amino acids 1-169, produced at Accelegan Inc.) was incubated with custom made Cy5 labelled tracer, terbium streptavidin (Cisbio Inc.) and compound (1% DMSO final) in buffer (50 mM HEPES, pH 7.5, 5 mM MgCl2, 0.005% Tween-20 and 1 mM DTT). After a 60-minute incubation at room temperature, the reaction was measured using a BMG LABTECH CLARIO star Plus via TR-FRET. […] The POC values were fit to a 4-parameter IC50 equation and the IC50 value reported.

KRas G12S = target: T2, KRas G12S (Homo sapiens, UniProt P01116, G12S); test: as above; conditions: 60-minute incubation at room temperature, 1% DMSO, pH 7.5
T2 construct: Biotinylated KRas (corresponding to amino acids 1-169, produced at Accelegan Inc.); biotin (biotinylated); purchased Accelegan Inc
T2 sequence (P01116 1-169 isoform P01116-2 G12S): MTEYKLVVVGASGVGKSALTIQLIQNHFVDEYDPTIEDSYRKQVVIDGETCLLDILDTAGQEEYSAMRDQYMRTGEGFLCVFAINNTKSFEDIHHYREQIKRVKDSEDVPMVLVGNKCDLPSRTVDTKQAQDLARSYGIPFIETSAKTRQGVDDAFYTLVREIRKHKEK
Protocol: as §1, §2

KRas WT = target: T3, KRas WT (Homo sapiens, UniProt P01116); test: as above; conditions: 60-minute incubation at room temperature, 1% DMSO, pH 7.5
T3 construct: Biotinylated KRas (corresponding to amino acids 1-169, produced at Accelegan Inc.); biotin (biotinylated); purchased Accelegan Inc
T3 sequence (P01116 1-169 isoform P01116-2): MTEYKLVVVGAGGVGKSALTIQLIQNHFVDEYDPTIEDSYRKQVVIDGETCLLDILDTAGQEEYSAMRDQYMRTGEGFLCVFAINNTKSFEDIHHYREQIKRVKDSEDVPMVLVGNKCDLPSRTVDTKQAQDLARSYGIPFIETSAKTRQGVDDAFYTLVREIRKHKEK
Protocol: as §1, §2

[1] = target: T4, KRas-mediated phosphorylation of ERK in A549 cells (Homo sapiens, UniProt P01116, G12S); test: Inhibition of KRas-mediated phosphorylation of ERK (HTRF), A549 cells; type: cell-based; conditions: HTRF pERK, 3 h incubation
T4 construct: pERK HTRF read-out
T4 sequence (P01116 1-188 isoform P01116-2 G12S): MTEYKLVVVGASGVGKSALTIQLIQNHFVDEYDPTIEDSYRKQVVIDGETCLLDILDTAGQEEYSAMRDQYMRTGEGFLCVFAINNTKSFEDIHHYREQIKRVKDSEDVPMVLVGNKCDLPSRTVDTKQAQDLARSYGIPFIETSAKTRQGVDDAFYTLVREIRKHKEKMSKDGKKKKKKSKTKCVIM

[2] = target: T5, KRas-mediated phosphorylation of ERK in MKN1 cells (Homo sapiens, UniProt P01116); test: Inhibition of KRas-mediated phosphorylation of ERK (HTRF), MKN1 cells; type: cell-based; conditions: MKN1 cells (KRas WT); HTRF pERK; 3 h incubation
T5 construct: pERK HTRF read-out
T5 sequence (P01116 1-188 isoform P01116-2): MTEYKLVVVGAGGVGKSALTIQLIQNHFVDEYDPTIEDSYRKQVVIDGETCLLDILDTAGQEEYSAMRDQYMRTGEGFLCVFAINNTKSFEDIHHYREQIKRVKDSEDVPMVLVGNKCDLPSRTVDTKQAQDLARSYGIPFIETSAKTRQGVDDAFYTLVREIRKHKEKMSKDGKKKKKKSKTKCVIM
Protocol: Inhibition of KRas Phosphorylation of ERK (HTRF) by Exemplary Compounds of Formula (Ia) or (Ib)
Cisbio HTRF Advanced pERK Assay Catalog #64AERPEH • Cells: MKN1, PSN1 • Procedure: • 1. Day 1: Seed 6,000 cells/well −25 μl/well in 384-well white solid bottom plate; RPM1_10% FBS. Incubate overnight at 37 °C/5% CO2. • 2.

Row | SMILES | IC50 (KRas G12C) [nM] | IC50 (KRas G12S) [nM] | IC50 (KRas WT) [nM] | IC50 [1] [nM] | IC50 [2] [nM]
1 | CCc1c(F)ccc2cc(O)cc(-c3ncc4c(N5CCN(C(=O)n6ccc(C)n6)C(CC#N)C5)nc(OC[C@@]56CCCN5C[C@H](F)C6)nc4c3F)c12 (stereo partly drawn) [Example 126, 2-(4-(7-(8-ethyl-7-fluoro-3-hydroxynaphthalen-1-yl)-8-fluoro-2-(((2R,7aS)-2-fluorotetrahydro-1H-pyrrolizin-7a(5H)-yl)methoxy)pyrido[4,3-d]pyrimidin-4-yl)-1-(3-methyl-1H-pyrazole-1-carbonyl)piperazin-2-yl) acetonitrile] | 84 | 88 | 8 | 9800 | 
2 | CCc1c(F)ccc2cc(O)cc(-c3ncc4c(N5CCN(C(=O)n6ccc(C)n6)C(C(F)F)C5)nc(OC[C@@]56CCCN5C[C@H](F)C6)nc4c3F)c12 (stereo partly drawn) [Example 125, (2-(difluoromethyl)-4-(7-(8-ethyl-7-fluoro-3-hydroxynaphthalen-1-yl)-8-fluoro-2-(((2R,7aS)-2-fluorotetrahydro-1H-pyrrolizin-7a(5H)-yl)methoxy)pyrido[4,3-d]pyrimidin-4-yl)piperazin-1-yl)(3-methyl-1H-pyrazol-1-yl)methanone] | 96 | 168 | 84 | 6810 | 
3 | Cc1ccn(C(=O)[C@@H]2CCCN(c3nc(OC[C@@]45CCCN4C[C@H](F)C5)nc4c(F)c(-c5ccc(F)c6sc(N)c(C#N)c56)c(Cl)cc34)CC2)n1 (atropisomer, axis not shown; (aS)) [Example 171, 2-amino-4-((R)-6-chloro-8-fluoro-2-(((2R,7aS)-2-fluorotetrahydro-1H-pyrrolizin-7a(5H)-yl)methoxy)-4-((R)-4-(3-methyl-1H-pyrazole-1-carbonyl)azepan-1-yl)quinazolin-7-yl)-7-fluorobenzo[b]thiophene-3-carbonitrile] |  |  |  | 6440 | 3040
4 | O=C(Oc1c(F)cccc1F)[C@H]1[C@@H]2C[C@H]1CN(c1nc(OCC34CCCN3CCC4)nc3c(F)c(-c4cccc5cccc(F)c45)ncc13)C2 [Example 6, 2,6-difluorophenyl (1R,5S,6s)-3-(8-fluoro-7-(8-fluoronaphthalen-1-yl)-2-((tetrahydro-1H-pyrrolizin-7a(5H)-yl)methoxy)pyrido[4,3-d]pyrimidin-4-yl)-3-azabicyclo[3.1.1]heptane-6-carboxylate] | 10600 | 7950 | 8060 |  | 
5 | Cc1ccn(C(=O)[C@H]2CCCN(c3nc(OC[C@@]45CCCN4C[C@H](F)C5)nc4c(F)c(-c5ccc(F)c6sc(N)c(C#N)c56)c(Cl)cc34)CC2)n1 (atropisomer, axis not shown; (aS)) [Example 169, 2-amino-4-((R)-6-chloro-8-fluoro-2-(((2R,7aS)-2-fluorotetrahydro-1H-pyrrolizin-7a(5H)-yl)methoxy)-4-((S)-4-(3-methyl-1H-pyrazole-1-carbonyl)azepan-1-yl)quinazolin-7-yl)-7-fluorobenzo [b]thiophene-3-carbonitrile] |  |  |  | 534 | 9480
6 | O=C(Oc1ccccc1)[C@@H]1[C@@H]2CC[C@H]1CN(c1nc(OCC34CCCN3CCC4)nc3c(F)c(-c4cccc5cccc(F)c45)ncc13)C2 [Example 26, phenyl (1R,5S,8r)-3-(8-fluoro-7-(8-fluoronaphthalen-1-yl)-2-((tetrahydro-1H-pyrrolizin-7a(5H)-yl)methoxy)pyrido[4,3-d]pyrimidin-4-yl)-3-azabicyclo[3.2.1]octane-8-carboxylate] | 92800 | 75600 | 10600 |  | 
7 | O=C(Oc1c(F)cc(F)cc1F)C1CCN(c2nc(OCC34CCCN3CCC4)nc3c(F)c(-c4cccc5cccc(F)c45)ncc23)CC1 [Example 12, 2,4,6-trifluorophenyl 1-(8-fluoro-7-(8-fluoronaphthalen-1-yl)-2-((tetrahydro-1H-pyrrolizin-7a(5H)-yl)methoxy)pyrido[4,3-d]pyrimidin-4-yl)piperidine-4-carboxylate] | 808 | 59600 | 48500 |  | 
8 | O=C(Oc1ccccc1F)[C@@H]1[C@@H]2CC[C@H]1CN(c1nc(OCC34CCCN3CCC4)nc3c(F)c(-c4cccc5cccc(F)c45)ncc13)C2 [Example 25, 2-fluorophenyl (1R,5S,8s)-3-(8-fluoro-7-(8-fluoronaphthalen-1-yl)-2-((tetrahydro-1H-pyrrolizin-7a(5H)-yl)methoxy)pyrido[4,3-d]pyrimidin-4-yl)-3-azabicyclo[3.2.1]octane-8-carboxylate] | 66900 | > 100000 | 10900 |  | 
9 | O=C(Oc1ccc(F)cc1)C1CCN(c2nc(OCC34CCCN3CCC4)nc3c(F)c(-c4cccc5cccc(F)c45)ncc23)CC1 [Example 14, 4-fluorophenyl 1-(8-fluoro-7-(8-fluoronaphthalen-1-yl)-2-((tetrahydro-1H-pyrrolizin-7a(5H)-yl)methoxy)pyrido[4,3-d]pyrimidin-4-yl)piperidine-4-carboxylate] | 877 | > 100000 | 45000 |  | 
10 | N#Cc1cccc(OC(=O)[C@@H]2[C@@H]3CC[C@H]2CN(c2nc(OCC45CCCN4CCC5)nc4c(F)c(-c5cccc6cccc(F)c56)ncc24)C3)c1 [Example 22, 3-cyanophenyl (1R,5S,8r)-3-(8-fluoro-7-(8-fluoronaphthalen-1-yl)-2-((tetrahydro-1H-pyrrolizin-7a(5H)-yl)methoxy)pyrido[4,3-d]pyrimidin-4-yl)-3-azabicyclo[3.2.1]octane-8-carboxylate] | 95200 | > 100000 | 14100 |  | 
11 | COC(=O)[C@H]1CCN(c2nc(OCC34CCCN3CCC4)nc3c(F)c(-c4cccc5cccc(F)c45)ncc23)C[C@@H]1O [Example 45, methyl (3R,4S)-1-(8-fluoro-7-(8-fluoronaphthalen-1-yl)-2-((tetrahydro-1H-pyrrolizin-7a(5H)-yl)methoxy)pyrido[4,3-d]pyrimidin-4-yl)-3-hydroxypiperidine-4-carboxylate] | > 100000 | > 100000 | 65700 |  | 
12 | COC(=O)[C@@H]1[C@@H]2CC[C@H]1CN(c1nc(OCC34CCCN3CCC4)nc3c(F)c(-c4cccc5cccc(F)c45)ncc13)C2 [Example 19, methyl (1R,5S,8s)-3-(8-fluoro-7-(8-fluoronaphthalen-1-yl)-2-((tetrahydro-1H-pyrrolizin-7a(5H)-yl)methoxy)pyrido[4,3-d]pyrimidin-4-yl)-3-azabicyclo[3.2.1]octane-8-carboxylate] | 20100 | 7460 | 2800 |  | 
13 | CCc1c(F)ccc2cc(O)cc(-c3ncc4c(N(C)CCCC(=O)NC(C)=O)nc(OC[C@@]56CCCN5C[C@H](F)C6)nc4c3F)c12 [Example 325, N-acetyl-4-((7-(8-ethyl-7-fluoro-3-hydroxynaphthalen-1-yl)-8-fluoro-2-(((2R,7aS)-2-fluorotetrahydro-1H-pyrrolizin-7a(5H)-yl)methoxy)pyrido[4,3-d]pyrimidin-4-yl)(methyl)amino)butanamide] | 12 | 14 | 23 |  | 
14 | O=C(Oc1c(F)cccc1F)[C@@H]1[C@@H]2CC[C@H]1CN(c1nc(OCC34CCCN3CCC4)nc3c(F)c(-c4cccc5cccc(F)c45)ncc13)C2 [Example 24, 2,6-difluorophenyl (1R,5S,8r)-3-(8-fluoro-7-(8-fluoronaphthalen-1-yl)-2-((tetrahydro-1H-pyrrolizin-7a(5H)-yl)methoxy)pyrido[4,3-d]pyrimidin-4-yl)-3-azabicyclo[3.2.1]octane-8-carboxylate] | 30500 | > 100000 | 17700 |  | 
15 | O=C(Nc1ccccn1)C1CCN(c2nc(OCC34CCCN3CCC4)nc3c(F)c(-c4cccc5cccc(F)c45)ncc23)CC1 [Example 3, 1-(8-fluoro-7-(8-fluoronaphthalen-1-yl)-2-((tetrahydro-1H-pyrrolizin-7a(5H)-yl)methoxy)pyrido[4,3-d]pyrimidin-4-yl)-N-(pyridin-2-yl)piperidine-4-carboxamide] | 582 | 346 | 649 |  | 
16 | COC(=O)C1CCN(c2nc(OCC34CCCN3CCC4)nc3c(F)c(-c4cccc5cccc(F)c45)ncc23)CC1 [Example 41, methyl 1-(8-fluoro-7-(8-fluoronaphthalen-1-yl)-2-((tetrahydro-1H-pyrrolizin-7a(5H)-yl)methoxy)pyrido[4,3-d]pyrimidin-4-yl)piperidine-4-carboxylate] | 18200 | 17600 | 12300 |  | 
